From patent publication US20090311264A1, “Use of Disorazoles and Their Derivatives for the Treatment of Benign and Malignant Oncoses” (AEterna Zentaris GmbH, priority 2003, published 2009) come the findings set out here.

SMILES strings stand for the structures. In brackets after ≈: the same amount, converted by molar mass. Entries after “also recorded” stand apart in the source; their conditions may differ. Like-named read-outs stand apart in the source and are kept apart here.

Data set [1] deals with lung carcinoma cell line NCI-H460. The data set can be described thus: XTT proliferation assay, NCI-H460. Format: cell-based, human. To be noted: for EC50: Homo sapiens, NCI-H460, read-out: XTT proliferation assay, EC50, NCl-H460. The source says:
(§1) The compounds according to the invention were investigated for their antiproliferative activity in a proliferation test on established tumor cell lines (D. A. Scuderio et al. Cancer Res. 1988, 48, 4827-4833). The test used determines the cellular dehydrogenase activity and makes possible a determination of the cell vitality and indirectly of the cell count. The cell lines used are the human cervical carcinoma cell line KB/HeLa (ATCC CCL17), the ovarian adenocarcinoma cell line SKOV-3 (ATCC HTB77), the human glioblastoma cell line SF-268 (NCI 503138), the lung carcinoma cell line NCI-H460 (NCI 503473) and the human colon adenocarcinoma cell line RKOP 27.
For orientation: Formazan colour is commonly taken as a measure of viable cells.

The subject of data set [2] is ovarian adenocarcinoma cell line SKOV-3. The data set can be described thus: XTT proliferation assay, SKOV-3. The format is cell-based, human. To be noted: for EC50: Homo sapiens, SK-OV-3, read-out: XTT proliferation assay, EC50, SKOV3.
Excerpt: as §1

Data set [3] relates to human cervical carcinoma cell line KB/HeLa. The data set can be described thus: XTT proliferation assay, KB/HeLa. The format is cell-based. To be noted: for EC50: Homo sapiens, HeLa.
Excerpt: as §1

In data set [4] the test system is acute myeloid leukemia cell line LT12. The data set can be described thus: XTT proliferation test, LT12 (nonresistant). Format: cell-based. To be noted: for EC50: Rattus norvegicus. The source says: (§2) For further characterization, the substances according to the invention were investigated against multi-drug-resistant cell lines (MDR) in comparison to the nonresistant wild-type cell lines. The cell lines investigated are the acute myeloid leukemia cell line LT1 and the resistant line LT12/mdr. Moreover, the murine P388 cell line (methylcholanthrene-induced lymphoid neoplasm) and the doxorubicin-resistant P388 were used as test systems.

A further data set deals with murine P388 cell line. The data set can be described thus: XTT proliferation test, P388 (nonresistant). Format: cell-based. The conditions noted are these: for EC50: Mus musculus.
Excerpt: as §2

Data set [5] has as its system human glioblastoma cell line SF-268. The data set can be described thus: XTT proliferation assay, SF-268. Format: cell-based. The conditions noted are these: for EC50: Homo sapiens.
Excerpt: as §1

For data set [6], the system named is doxorubicin-resistant P388. The data set can be described thus: XTT proliferation test, P388ADR (resistant). The format is cell-based, murine. To be noted: for EC50: Mus musculus, P388.
Excerpt: as §2

The subject of another data set is KB/HeLa cells. The data set can be described thus: Cell cycle analysis (G2/M arrest). Format: cell-based, human. To be noted: 24 hours at 37° C., read-out: EC50 (50% cells in G2/M).
In a further data set the test system is resistant line LT12/mdr. The experiment in a line: XTT proliferation test, LT12MDR (resistant). The format is cell-based. The conditions noted are these: for EC50: Rattus norvegicus, LT12.
Excerpt: as §2

The test system of data set [7] is human colon adenocarcinoma cell line RKOP 27. The experiment in a line: XTT proliferation assay, RKOP 27. The format is cell-based.
Excerpt: as §1

Data set [8] concerns primary human hepatocytes. The experiment in a line: Survival of nonproliferating cells (alamarBlue). The conditions noted are these: 1 μM, n = 3. Format: cell-based. From the text:
(§3) For the estimation of the possible side-effect potential, the influence of disorazole E1 on nonproliferating cells and on the protein biosynthesis was investigated (table 6).

A further data set has as its system bovine β-tubulin. The experiment in a line: Inhibition of the polymerization of tubulin. Format: biochemical. To be noted: n = 2. Here is the method: The substances were tested in an in-vitro test for inhibition of the polymerization of bovine β-tubulin (D. M. Bollag et al. Cancer Res. 1995, 55, 2325-2333). In this test, tubulin purified by cycles of polymerization and depolymerization is employed, and is polymerized by addition of GTP and warming. The EC50 values of the inhibition of polymerization of β-tubulin with and without 30% associated proteins (MAPs) are indicated in table 3.

For the next data set, the system named is NCI-H460 tumor xenograft. The experiment in a line: In vivo therapy experiment, NCI-H460 tumor xenograft. Details: species or system nude mice. The conditions noted are these: for cases of death: n = 8 animals/group. Here is the method: The in-vivo activity of the compounds according to the invention was tested on human and murine xenograft models.
The test system of data set [9] is Salmonella typhimurium TA98. The format is cell-based. To be noted: for AMES TA98 with S9: with rat liver enzyme S9. Here is the method: (§4) For the estimation of possible side effects, disorazole E1 was investigated for mutagenicity in a fluctuation assay against the mutant strains TA98 and TA100 of the bacterium Salmonella typhimurium at three concentrations (2.5; 5 and 10 μM). The mutagenicity investigations were further carried out in the presence of the rat liver enzyme S9.

Data set [10] has as its system Salmonella typhimurium TA100. Format: cell-based. To be noted: for AMES TA100 with S9: with rat liver enzyme S9. As to the method:
as §4

In data set [11] the test system is human hepatocellular carcinoma cells (HepG2). The data set can be described thus: Protein synthesis (incorporation of 14C-methionine). Format: cell-based. The conditions noted are these: 1 μM, 14C-methionine incorporation, n = 2.
Excerpt: as §3

As for `CC(=O)O[C@H]1C(=O)[C@@]2(C)[C@H]([C@H](OC(=O)c3ccccc3)[C@]3(O)C[C@H](OC(=O)[C@H](O)[C@@H](NC(=O)c4ccccc4)c4ccccc4)C(C)=C1C3(C)C)[C@]1(OC(C)=O)CO[C@@H]1C[C@@H]2O` [Paclitaxel], the EC50 worked out at 10 ng/mL (≈ 0.0117 µM) in data set [1]; 10 ng/mL (≈ 0.0117 µM) in [2]; 10 ng/mL (≈ 0.0117 µM) in data set [3]; 5 ng/mL (≈ 0.00586 µM) in data set [4]; 35 ng/mL (≈ 0.041 µM) in the data set on murine P388 cell line; 10 ng/mL (≈ 0.0117 µM) in [5]. For the same compound, the EC50 in [6] was over 3160 ng/mL; with KB/HeLa cells (Homo sapiens), 46 nM; with resistant line LT12/mdr it was 340 ng/mL (≈ 0.398 µM).

Regarding `C/C=C/C(O)C(C)(C)C1C/C=C\C2OC2C=CC(OC)Cc2nc(co2)C(=O)OC(C(C)(C)C(O)/C=C/C)C/C=C\C2OC2/C=C\C=Cc2nc(co2)C(=O)O1` (centres unmarked) [Disorazole E1], the “XTT proliferation assay, EC50, NCl-H460” value in data set [1] was 0.04 ng/mL. In [2], the “XTT proliferation assay, EC50, SKOV3” value stood at 0.02 ng/mL. For the same compound, the “XTT proliferation assay, EC50, RKOP 27” value in [7] is 0.06 ng/mL. Also, the “XTT proliferation assay, EC50, KB/Hela” value in [3] came to 0.07 ng/mL. Further, the “XTT proliferation assay, EC50, LT12” value in data set [4] came to 0.1 ng/mL. For the same compound, the “XTT proliferation assay, EC50, P388” value with murine P388 cell line turned out to be 0.4 ng/mL. Also, the “Surviving cells, primary human hepatocytes, Average, % of control” value in data set [8] was 119.6 % of control. Further, the “XTT proliferation assay, EC50, SF-268” value in [5] came out at 0.17 ng/mL. Also, in [6], the “XTT proliferation assay, EC50, P388ADR” value was 1 ng/mL. Also, in the data set on bovine β-tubulin, the “Inhibition of the polymerization of β-tubulin, EC50 with 30% MAPs” value (from here on “Inhibition … with 30% MAPs”) worked out at 1500 ng/mL. Also, the EC50 with KB/HeLa cells was 1.6 nM. Also, the cases of death was 0.05 mg/kg; i.v.: day 0, 7, 14; no cases of in the data set on NCI-H460 tumor xenograft (0.05 mg/kg, i.v.: day 0, 7, 14); 0.1 mg/kg; i.v.: day 0, 7, 14; no cases of in the data set on NCI-H460 tumor xenograft (0.1 mg/kg, i.v.: day 0, 7, 14); 0.25 mg/kg; i.v.: day 0, 7; 8 dead (day with NCI-H460 tumor xenograft (0.25 mg/kg, i.v.: day 0, 7, dead on day 11, 12, 13). Further, the “reduction of the tumor growth” value in the data set with NCI-H460 tumor xenograft (i.v., NCI-H460 xenograft-bearing nude mice, at doses without weight decrease or mortality) is given as “significant reduction in tumor growth; also recorded: significant reduction of the tumor growth”. Further, in the data set with NCI-H460 tumor xenograft (i.v., at doses reducing tumor growth), the weight decrease result is “no significant weight decrease”. The “AMES TA98 with S9” value in data set [9] (2.5 μM), in [9] (5 μM) and in data set [9] (10 μM) was “inactive” throughout. The “AMES TA98 without S9” value in data set [9] (2.5 μM), in data set [9] (5 μM) and in [9] (10 μM) was “inactive” in each case. The “AMES test, overall result” value in [9] (TA98 and TA100, with and without S9, 2.5, 5 and 10 μM) was “AMES test-inactive”. The “AMES TA100 with S9” value in [10] (2.5 μM), in [10] (5 μM) and in [10] (10 μM) was “inactive” throughout. Besides, the “AMES TA100 without S9” value in data set [10] (2.5 μM), in [10] (5 μM) and in data set [10] (10 μM) was “inactive” each time. Also, the “Protein synthesis, Average, % of control” value in [11] is 95.9 % of control. In addition, the “XTT proliferation assay, EC50, LT12MDR” value in the data set on resistant line LT12/mdr amounted to 4 ng/mL.

`C/C=C/[C@H](O)C(C)(C)[C@@H]1C\C=C/C=C\C=C\[C@H](OC)Cc2nc(co2)C(=O)O[C@H](C(C)(C)[C@@H](O)/C=C/C)C/C=C\[C@H]2O[C@H]2/C=C/C=C\c2nc(co2)C(=O)O1` [Disorazole A1]: the “XTT proliferation assay, EC50, NCl-H460” value in data set [1] stood at 0.15 ng/mL. Also, in data set [2], the “XTT proliferation assay, EC50, SKOV3” value amounted to 0.2 ng/mL. In data set [7], the “XTT proliferation assay, EC50, RKOP 27” value was 0.25 ng/mL. The “XTT proliferation assay, EC50, KB/Hela” value in [3] amounted to 0.15 ng/mL. The “XTT proliferation assay, EC50, SF-268” value in [5] was 0.27 ng/mL. Besides, the “Inhibition … with 30% MAPs” value with bovine β-tubulin was determined as 4800 ng/mL.

Consider `CC[C@]1(O)C[C@@H]2CN(CCc3c([nH]c4ccccc34)[C@@](C(=O)OC)(c3cc4c(cc3OC)N(C)[C@H]3[C@@](O)(C(N)=O)[C@H](O)[C@]5(CC)C=CCN6CC[C@]43[C@@H]65)C2)C1` [Vindesine], for which the EC50 amounted to 6 ng/mL (≈ 0.00796 µM) in data set [1]; 2 ng/mL (≈ 0.00265 µM) in [2]; 2 ng/mL (≈ 0.00265 µM) in data set [3]; 0.9 ng/mL (≈ 0.00119 µM) in data set [4]; 9 ng/mL (≈ 0.0119 µM) in the data set with murine P388 cell line; 5 ng/mL (≈ 0.00663 µM) in data set [5]. For the same compound, the EC50 is 940 ng/mL (≈ 1.25 µM) in data set [6], 3 nM with KB/HeLa cells (Homo sapiens) and 222 ng/mL (≈ 0.294 µM) with resistant line LT12/mdr. In the data set with bovine β-tubulin, the “Inhibition … with 30% MAPs” value came to 400 ng/mL.
